Results from paper PMC3592886, “Utilization of Quantitative In Vivo Pharmacology Approaches to Assess Combination Effects of Everolimus and Irinotecan in Mouse Xenograft Models of Colorectal Cancer” (PLoS ONE, 2013).
Where two headings read alike, the source gives them in different places. Marks after values point to notes of the source that are not given here.

Columns and labels:
HT29 tumor xenografts = test: Therapeutic study and tumor growth modeling, HT29 tumor xenografts; assay type: in vivo, mice
Method: (§1) For tumor bearing studies, cells were harvested and resuspended in a 1∶1 mixture of serum-free RPMI and Matrigel (BD Bioscience). One million cells were injected subcutaneously into each rear flank of mice. Tumor volumes, measured by digital calipers, were calculated by V (mm^3) = length x (width)^2 x 0.5236.
(§2) When HT29 and HCT116 tumors reached an average volume of ∼325 mm^3 animals were randomized into four treatment groups (n = 9–10 mice per group): (i) vehicles, (ii) 5 mg/kg everolimus (RAD) by oral gavage (PO) daily, (iii) 10 mg/kg irinotecan (IRI) once weekly by intravenous (iv) tail vein injection, and (iv) a combination of RAD and IRI. Everolimus, diluted in sterile water, and irinotecan, diluted in sterile 0.9% saline, were administered at 4 mL/kg. Animals were treated for 28 days. Tumor volumes and body weights were measured 2–3 times weekly. On day 28 of treatment 3–6 animals per group were sacrificed, approximately 24 hours following everolimus treatment, and tumors harvested for metabolomic analysis.
(§3) Data from the in vivo study was modeled to assess the therapeutic benefit of adding everolimus to irinotecan. The model used was similar to a previously published model for assessing combination therapy. Some modifications were made and details of the model can be found in Supplement S1 (section SA.3.) and Supplement S2. All modeling was performed on individual animal tumor volume data and modeled with SAAM II version 2.1. […]
(§4) are presented in Tables 1 and 2 in Supplement B. Individual fits of the model to the data can also be found in Supplement B. The average growth terms for each tumor type were then fixed at the average parameter value and used to determine the single agent effects (kx) of each compound by fitting the following equation: […] where cx(t) is the concentration of drug x with respect to time. Individual tumors were modeled and the average value of kx determined (Supplement B Tables 1 & 2) for each single agent treatment. This value was used to fit the following equation to the combination tumor growth data to determine the degree of interaction between the two drugs.
(§5) , the interaction term, was determined for each individual tumor for each tumor type and the data is presented in Table 2 in the main text and individual fits can be found in Supplement B.
(§6) We determined that values greater than 1.3 are synergistic, between 1.3 and 0.7 are additive, between 0.7 and 0 are less than additive, and negative values for are antagonistic. These ranges were selected based on the model fits. The CV% for the model fits ranged from 15 to 50 with an average CV% of approximately 30%. Therefore we assume an average variance of 30% making the additive range from 1.3 to 0.7 (1 + 30% and 1- 30%). […]

HCT116 tumor xenografts = test: Therapeutic study and tumor growth modeling, HCT116 tumor xenografts; assay type: in vivo, mice
Method: as §1, §2, §3, §4, §5, §6

[1] = Irinotecan and SN-38 plasma PK model and simulations in mice; conditions: PK model parameter, fit to data of previous publications (37-39)
Excerpt: The pharmacokinetic models used for everolimus and irinotecan and SN38 in the above equations can be found in Supplement B. Data used to fit the everolimus pharmacokinetics was obtained in the study presented here. In the above equations, for irinotecan treatments, SN38 concentration was used to determine the effect since it is the active agent. The data used to fit the irinotecan and SN38 pharmacokinetics was obtained from previous publications (37-39).
Irinotecan and SN-38 Plasma PK […]

HT29 tumors = test: NMR-based metabolomics of HT29 tumors; assay type: in vivo, mice; conditions: end of study
Method: as §2
For metabolomic analysis, animals were fasted for 4 hours then received 250 mg/kg of [1-^13C] glucose (Cambridge Isotopes, Cambridge, MA) by IV injection 60 minutes prior to tumor harvesting. Snap-frozen tumor specimens underwent two-phase acid extraction procedure (using 8% perchloric acid) previously established and extensively published [19]–[22]. Further details may also be found in Supplement S1 (section SA.2.).

HT29 cells = test: Sulforhodamine B (SRB) anti-proliferation assay, HT29; assay type: cell-based
Method: (§7) Cytoxic effects were determined using the sulforhodamine B (SRB) assay. Briefly, 5000 viable cells were plated into 96-well plates and incubated overnight prior to exposure with different concentrations of drugs. Cells were exposed to increasing concentrations of everolimus (0–200 nM), SN38 (0–8 nM), and combinations of the two. Following a 72 hour incubation, media was removed and cells were fixed with cold 10% trichloroacetic acid for 30 minutes at 4° C. Cells were washed with water and stained with 0.4% SRB for 30 minutes at room temperature. Cells were washed again with 1% acetic acid and stain was solubilized with 10 mM tris at room temperature and read at an OD of 565 nm. […] The resulting Combination Index (CI) was used as a quantitative measure of the degree of interaction between different drugs. A CI value equal to 1 denotes additivity; CI greater than 1, antagonism; CI less than 1, synergism.

HCT116 cells = test: Sulforhodamine B (SRB) anti-proliferation assay, HCT116; assay type: cell-based
Method: as §7

HCT8 cells = test: Sulforhodamine B (SRB) anti-proliferation assay, HCT8; assay type: cell-based; conditions: RAD (20 nM), SN38 (4 nM) or the combination of the two, Figure 2
Method: as §7

p21 = test: Western blot, p21 in CRC cell lines; assay type: cell-based; conditions: SN38 4 nM, 24 hours, HCT116 and HCT8 cells
Method: (§8) Cells were seeded into 6-well plates 24 hours prior to treatment with each drug alone or in combination for 24 hours. Cells were scraped into RIPA buffer containing protease inhibitors, EDTA, NaF, and sodium orthovanadate. Total protein was determined using the Pierce 660 nm Protein Assay (Pierce, Rockford, IL). Thirty micrograms of total protein was loaded onto a 4–12% gradient gel, electrophoresed and transferred to nitrocellulose using the iBlot system (Invitrogen, Carlsbad, CA). Membranes were blocked for one hour at room temperature with Licor Blocking Buffer (Licor, Lincoln, NE) prior to overnight incubation at 4°C with one of the following antibodies: pS6RP, tS6RP, pAKT, tAKT, pERK, tERK, p21, PARP, actin and α-tubulin (Cell Signaling, Beverly, MA). All antibodies were used at a 1∶1000 dilution except for pERK, which was used at 1∶2000. Following primary antibody incubation, blots were washed in TBS-Tween(0.1%), then incubated with the appropriate secondary antibody at 1∶15,000 (Licor, Lincoln, NE) for one hour at room temperature. After three additional washes, blots were developed using the Licor Odyssey (Licor, Lincoln, NE).

cleaved PARP = test: Western blot, cleaved PARP in CRC cell lines; assay type: cell-based
Method: as §8

[2] = Human pharmacokinetics of SN38 after irinotecan from the literature; assay type: in vivo; conditions: humans, irinotecan doses ranging from 125–350 mg/m^2, from literature data
Method: (§9) In vivo SN38 data was evaluated to define the dose of irinotecan to be used since it is the active metabolite of irinotecan and carboxylesterase conversion of irinotecan to SN38 varies between mice and humans. Based on human and mouse pharmacokinetic data gathered from literature data [27]–[30], [35]–[40], we selected a dose of 10 mg/kg of irinotecan to be administered intravenously once weekly (Table 2).

[3] = Mouse pharmacokinetics of SN38 after irinotecan from the literature; assay type: in vivo; conditions: mice, irinotecan 10 mg/kg iv, estimated from literature data
Method: as §9

[4] = Human, cited from earlier work
[5] = cited from earlier work; for AUC0→t: t = 6 h
[6] = SN38, mice; cited from earlier work
[7] = SN38, humans; cited from earlier work
[8] = SN38 after irinotecan 125mg/m^2, 1.5 hr INF, ref 27
[9] = SN38 after irinotecan 125mg/m^2, 1.5 hr INF, ref 29
[10] = SN38 after irinotecan 340mg/m^2, 1.5 hr INF
[11] = SN38 after irinotecan 350mg/m^2, 1 hr INF, Week 4 PK with cetuximab
[12] = SN38 after irinotecan 350mg/m^2, 1 hr INF
[13] = SN38 after irinotecan 5mg/kg IV Bolus, Mouse
[14] = SN38 after irinotecan 10mg/kg IV Bolus, Mouse, ref 39
[15] = SN38 after irinotecan 20mg/kg IV Bolus, Mouse
[16] = SN38 after irinotecan 40mg/kg IV Bolus, Mouse

## CCc1c2c(nc3ccc(OC(=O)N4CCC(N5CCCCC5)CC4)cc13)-c1cc3c(c(=O)n1C2)COC(=O)[C@]3(O)CC [Irinotecan]
HT29 tumor xenografts; HT29 (BRAF and PIK3CA mutant), IRI, SN38 concentration used in the model
  k1 (SD), single agent effect: 0.0092 (0.0023) mL/ng*day-1
HT29 tumor xenografts; HT29 xenografts, 5 mg/kg everolimus PO daily, 10 mg/kg irinotecan iv once weekly, or combination, 28 days
  average tumor growth inhibition, TGI: 39%
HCT116 tumor xenografts; HCT116 (KRAS and PIK3CA mutant), IRI, SN38 concentration used in the model
  k1 (SD), single agent effect: 0.0149 (0.0086) mL/ng*day-1
HCT116 tumor xenografts; HCT116 xenografts, 5 mg/kg everolimus PO daily, 10 mg/kg irinotecan iv once weekly, or combination, 28 days
  average tumor growth inhibition, TGI: 17%
[1]; K(0,1)IRI
  k(0,1): 0.25 h⁻¹
[1]; compartment 1 (irinotecan) to 3 (SN-38)
  k(3,1): 1.91 h⁻¹
[1]; irinotecan central compartment, Dose = 10 mg/kg
  V1: 2.8 L/kg
[1]
  k(1,2): 1.15 h⁻¹
  k(2,1): 0.87 h⁻¹
HT29 tumors
  effect on tumor lipids: accumulation of lipids

## CCc1c2c(nc3ccc(O)cc13)-c1cc3c(c(=O)n1C2)COC(=O)[C@]3(O)CC [SN38]
HT29 cells; HT29, RAD (20 nM), SN38 (4 nM) or the combination of the two, Figure 2
  %Growth Inhibition: 59%
HT29 cells; HT29 cells
  IC50: 3 nM
HCT116 cells; HCT116, RAD (20 nM), SN38 (4 nM) or the combination of the two, Figure 2
  %Growth Inhibition: 23%
HCT116 cells; HCT116 cells
  IC50: > 300 nM
HCT8 cells
  %Growth Inhibition: 50%
p21
  effect on p21: increase
Cleaved PARP; SN38 treated HCT8 cells
  cleaved PARP (MW 89): A small amount
Cleaved PARP; SN38 treated HT29 or HCT116 cells
  cleaved PARP (MW 89): not
[2]
  AUCfree of SN38: 4.4 to 18.6 ng·h/mL
[3]
  AUCfree of SN38: 7.5 to 25.8 ng·h/mL
[1]; K(0,3)SN38
  k(0,3): 4.67 h⁻¹
[1]; SN-38 central compartment
  V3: 2.7 L/kg
[1]
  k(3,4): 1.38 h⁻¹
  k(4,3): 5.22 h⁻¹
[4]; [8]
  AUC0→t: 229 ± 108 ng·h/mL
  Cmax: 26.3 ± 11.9 ng/mL
  t½: 10.4 ± 3.1 h
[4]; [9]
  AUC0→t: 228 ± 149 ng·h/mL
  Cmax: 27 ± 12 ng/mL
  t½: 28.5 h
[4]; SN38 after irinotecan 180mg/m^2, 1.5 hr INF, footnote a: Week 4 PK with cetuximab
  AUC0→t: 222–245 ^a ng·hr/mL
[4]; [10]
  AUC0→t: 474 ± 245 ng·h/mL
  Cmax: 56.0 ± 28.2 ng/mL
  t½: 21.0 ± 4.3 h
[4]; [11]
  AUC0→t: 609±531 ^a ng·hr/mL
  Cmax: 57±20 ^a ng/mL
  t½: 15±23 ^a hr
[4]; [12]
  AUC0→t: 931 ± 948 ng·h/mL
  Cmax: 88 ± 26 ng/mL
  t½: 23 ± 35 h
[5]; [13]
  AUC0→∞: 279 ^c ng·hr/mL
  Cmax: 647 ng/mL
[5]; SN38 after irinotecan 10mg/kg IV Bolus, Mouse (row r13), estimated from graph in reference
  Cmax: 443–673 ^b ng/mL
[5]; SN38 after irinotecan 10mg/kg IV Bolus, Mouse (row r13)
  AUC0→∞: 533–1029 ^c ng·hr/mL
[5]; SN38 after irinotecan 10mg/kg IV Bolus, Mouse, estimated from graph in reference
  Cmax: 435–600 ^b ng/mL
[5]; SN38 after irinotecan 10mg/kg IV Bolus, Mouse, ref 36
  t½: 2.2 h
[5]; SN38 after irinotecan 10mg/kg IV Bolus, Mouse, ref 37
  AUC0→∞: 533–759 ^c ng·hr/mL
[5]; [14]
  AUC0→∞: 534 ^c ng·hr/mL
  Cmax: 443 ng/mL
[5]; SN38 after irinotecan 10mg/kg IV Bolus, Mouse
  AUC0→t: 410±60 (t = 6 h) ng·hr/mL
[5]; [15]
  AUC0→t: 710±240 (t = 6 h) ng·hr/mL
  t½: 3.0 h
[5]; [16]
  AUC0→t: 1080±110 (t = 6 h) ng·hr/mL
  t½: 3.4 h
[6]
  plasma protein binding: 96.6–98.6%
[7]
  plasma protein binding: 98%
